These are literature values, as cited in PMC8538004, “Identification of a Novel Neuropeptide S Receptor Antagonist Scaffold Based on the SHA-68 Core” (Pharmaceuticals, 2021).

SMILES strings stand for the structures.

For data set [1], the system named is NPSR. Also on record: method as in PMID 24964000, PMID 20615693, PMID 18337476, PMID 24171469, PMID 20510609. The conditions noted are these: Figure 1, known NPSR antagonists; cited from earlier work.
The test system of data set [2] is NPS-stimulated locomotor activity. Also on record: method as in PMID 18337476, PMID 20172007. The conditions noted are these: dosed at 50 mg/kg, 0.1 nmol of NPS; cited from earlier work.

In the case of `O=C(NCc1ccccc1)N1CCN2C(=O)OC(c3ccccc3)(c3ccccc3)C2C1` (stereo not drawn) [SHA-66], the Ke in data set [1] was 10 nM.

Consider `O=C(NCc1ccc(F)cc1)N1CCN2C(=O)OC(c3ccccc3)(c3ccccc3)C2C1` (stereo not drawn) [SHA-68, 3-Oxo-1,1-diphenyl-tetrahydro-oxazolo[3,4-a]pyrazine-7-carboxylic Acid 4-Fluoro-benzylamide], for which the “Block of NPS-stimulated locomotor activity” value in data set [2] is “significantly block”. Further, the Ke in data set [1] is listed as 14 nM.
